# Experimental data published in ChEMBL document CHEMBL1811847, “Initial efforts toward the optimization of arylomycins for antibiotic activity” (2011).
# Columns and labels:
# Assay type in all cases: functional
# [1] = test system: Staphylococcus aureus; assay: Antibacterial activity against wild-type Staphylococcus aureus NCTC 8325 after 24 hrs by CLSI broth microdilution method; conditions: NCTC 8325, 24 h
# [2] = test system: Escherichia coli; assay: Antibacterial activity against Escherichia coli MG1655 after 24 hrs by CLSI broth microdilution method; conditions: MG1655, 24 h
# [3] = test system: Pseudomonas aeruginosa; assay: Antibacterial activity against wild-type Pseudomonas aeruginosa PAO1 after 24 hrs by CLSI broth microdilution method; conditions: PAO1, 24 h
# [4] = test system: Staphylococcus epidermidis; assay: Antibacterial activity against wild-type Staphylococcus epidermidis RP62A after 24 hrs by CLSI broth microdilution method
# [5] = test system: Staphylococcus aureus; assay: Antibacterial activity against Staphylococcus aureus NCTC 8325 harboring lepB P29S mutant after 24 hrs by CLSI broth microdilution method; conditions: NCTC 8325, 24 h
# [6] = test system: Escherichia coli; assay: Antibacterial activity against Escherichia coli MG1655 harboring lepB P84L mutant after 24 hrs by CLSI broth microdilution method; conditions: MG1655, 24 h
# [7] = test system: Staphylococcus epidermidis; assay: Antibacterial activity against Staphylococcus epidermidis RP62A harboring spsB S29P mutant after 24 hrs by CLSI broth microdilution method
# [8] = test system: Pseudomonas aeruginosa; assay: Antibacterial activity against Pseudomonas aeruginosa PAO1 harboring lepB P84L mutant after 24 hrs by CLSI broth microdilution method; conditions: PAO1, 24 h
# [9] = test system: Staphylococcus aureus; assay: Antibacterial activity against methicillin-resistant Staphylococcus aureus isolate USA300
SMILES,MIC [1],MIC [2],MIC [3],MIC [4],MIC [5],MIC [6],MIC [7],MIC [8],MIC [9]
CCCCCCCC(=O)N(C)[C@H](CO)C(=O)N[C@H](C)C(=O)NCC(=O)N(C)[C@@H]1C(=O)N[C@@H](C)C(=O)N[C@H](C(=O)O)Cc2ccc(O)c(c2)-c2cc1ccc2O,> 64 µg/mL,> 64 µg/mL,> 64 µg/mL,,,,,,
CCCCCCCCc1ccc(-c2ccc(C(=O)N(C)[C@H](CO)C(=O)N[C@H](C)C(=O)NCC(=O)N(C)[C@@H]3C(=O)N[C@@H](C)C(=O)N[C@H](C(=O)O)Cc4ccc(O)c(c4)-c4cc3ccc4O)cc2)cc1,16 µg/mL,> 64 µg/mL,> 64 µg/mL,1 µg/mL,8 µg/mL,1 µg/mL,16 µg/mL,,
CCCCCCCCCCCC(=O)N(C)[C@H](CO)C(=O)N[C@H](C)C(=O)NCC(=O)N(C)[C@@H]1C(=O)N[C@@H](C)C(=O)N[C@H](C(=O)O)Cc2ccc(O)c(c2)-c2cc1ccc2O,> 64 µg/mL,> 64 µg/mL,> 64 µg/mL,,,,> 64 µg/mL,,
CCCCCCCCCC(=O)N(C)[C@H](CO)C(=O)N[C@H](C)C(=O)NCC(=O)N(C)[C@@H]1C(=O)N[C@@H](C)C(=O)N[C@H](C(=O)O)Cc2ccc(O)c(c2)-c2cc1ccc2O,> 64 µg/mL,> 64 µg/mL,> 64 µg/mL,,,,,,
CCCCCCCCCCCCCCCCCC(=O)N(C)[C@H](CO)C(=O)N[C@H](C)C(=O)NCC(=O)N(C)[C@@H]1C(=O)N[C@@H](C)C(=O)N[C@H](C(=O)O)Cc2ccc(O)c(c2)-c2cc1ccc2O,> 64 µg/mL,> 64 µg/mL,> 64 µg/mL,,,,,,
C[C@@H]1NC(=O)[C@@H](N(C)C(=O)CNC(=O)[C@@H](C)NC(=O)[C@@H](CO)N(C)C(=O)Cc2ccc3ccccc3c2)c2ccc(O)c(c2)-c2cc(ccc2O)C[C@@H](C(=O)O)NC1=O,> 64 µg/mL,> 64 µg/mL,> 64 µg/mL,> 64 µg/mL,,,,,
C[C@@H]1NC(=O)[C@@H](N(C)C(=O)CNC(=O)[C@@H](C)NC(=O)[C@@H](CO)N(C)C(=O)Cc2ccc(-c3ccccc3)cc2)c2ccc(O)c(c2)-c2cc(ccc2O)C[C@@H](C(=O)O)NC1=O,> 64 µg/mL,> 64 µg/mL,> 64 µg/mL,32 µg/mL,,,> 64 µg/mL,,
C[C@@H]1NC(=O)[C@@H](N(C)C(=O)CNC(=O)[C@@H](C)NC(=O)[C@@H](CO)N(C)C(=O)c2ccc(-c3ccccc3)cc2)c2ccc(O)c(c2)-c2cc(ccc2O)C[C@@H](C(=O)O)NC1=O,> 64 µg/mL,> 64 µg/mL,> 64 µg/mL,64 µg/mL,,,> 64 µg/mL,,
CCc1ccc(-c2ccc(C(=O)N(C)[C@H](CO)C(=O)N[C@H](C)C(=O)NCC(=O)N(C)[C@@H]3C(=O)N[C@@H](C)C(=O)N[C@H](C(=O)O)Cc4ccc(O)c(c4)-c4cc3ccc4O)cc2)cc1,> 64 µg/mL,> 64 µg/mL,> 64 µg/mL,8 µg/mL,64 µg/mL,16 µg/mL,> 64 µg/mL,,
CCCCc1ccc(-c2ccc(C(=O)N(C)[C@H](CO)C(=O)N[C@H](C)C(=O)NCC(=O)N(C)[C@@H]3C(=O)N[C@@H](C)C(=O)N[C@H](C(=O)O)Cc4ccc(O)c(c4)-c4cc3ccc4O)cc2)cc1,> 64 µg/mL,> 64 µg/mL,> 64 µg/mL,1 µg/mL,16 µg/mL,4 µg/mL,> 64 µg/mL,,
CCCCCCc1ccc(-c2ccc(C(=O)N(C)[C@H](CO)C(=O)N[C@H](C)C(=O)NCC(=O)N(C)[C@@H]3C(=O)N[C@@H](C)C(=O)N[C@H](C(=O)O)Cc4ccc(O)c(c4)-c4cc3ccc4O)cc2)cc1,64 µg/mL,> 64 µg/mL,> 64 µg/mL,0.5 µg/mL,8 µg/mL,1 µg/mL,32 µg/mL,,
CCCCCCc1ccc(C(=O)N(C)[C@H](CO)C(=O)N[C@H](C)C(=O)NCC(=O)N(C)[C@@H]2C(=O)N[C@@H](C)C(=O)N[C@H](C(=O)O)Cc3ccc(O)c(c3)-c3cc2ccc3O)cc1,> 64 µg/mL,> 64 µg/mL,> 64 µg/mL,8 µg/mL,64 µg/mL,32 µg/mL,> 64 µg/mL,,
CCCCCCCCc1ccc(C(=O)N(C)[C@H](CO)C(=O)N[C@H](C)C(=O)NCC(=O)N(C)[C@@H]2C(=O)N[C@@H](C)C(=O)N[C@H](C(=O)O)Cc3ccc(O)c(c3)-c3cc2ccc3O)cc1,> 64 µg/mL,> 64 µg/mL,> 64 µg/mL,1 µg/mL,8 µg/mL,8 µg/mL,> 64 µg/mL,64 µg/mL,
CCCCCCCCCCc1ccc(C(=O)N(C)[C@H](CO)C(=O)N[C@H](C)C(=O)NCC(=O)N(C)[C@@H]2C(=O)N[C@@H](C)C(=O)N[C@H](C(=O)O)Cc3ccc(O)c(c3)-c3cc2ccc3O)cc1,32 µg/mL,> 64 µg/mL,> 64 µg/mL,0.5 µg/mL,4 µg/mL,2 µg/mL,16 µg/mL,16 µg/mL,
CCCCCCCCCCCCCCCC(=O)N[C@@H](CO)C(=O)N[C@@H](C)C(=O)NCC(=O)N(C)[C@@H]1C(=O)N[C@@H](C)C(=O)N[C@H](C(=O)O)Cc2ccc(O)c(c2)-c2cc1ccc2O,> 64 µg/mL,> 64 µg/mL,> 64 µg/mL,,,,,,
CCCCCCCCCCCCCCCC(=O)N[C@@H](CO)C(=O)N(C)[C@@H](C)C(=O)N(C)CC(=O)N(C)[C@@H]1C(=O)N[C@@H](C)C(=O)N[C@H](C(=O)O)Cc2ccc(O)c(c2)-c2cc1ccc2O,> 64 µg/mL,> 64 µg/mL,> 64 µg/mL,> 64 µg/mL,,,,,
CCCCCCCCCCCCCCCC(=O)N1C[C@@H](O)C[C@H]1C(=O)N[C@@H](C)C(=O)NCC(=O)N(C)[C@@H]1C(=O)N[C@@H](C)C(=O)N[C@H](C(=O)O)Cc2ccc(O)c(c2)-c2cc1ccc2O,> 64 µg/mL,> 64 µg/mL,> 64 µg/mL,4 µg/mL,4 µg/mL,,8 µg/mL,,
CCCCCCCCCCCCCCCC(=O)N(C)[C@@H](CO)CC(=O)N[C@@H](C)C(=O)NCC(=O)N(C)[C@@H]1C(=O)N[C@@H](C)C(=O)N[C@H](C(=O)O)Cc2ccc(O)c(c2)-c2cc1ccc2O,64 µg/mL,> 64 µg/mL,> 64 µg/mL,4 µg/mL,16 µg/mL,,8 µg/mL,,
CCCCCCCCCCCCCCCC(=O)N(C)[C@@H](CO)CCC(=O)N[C@@H](C)C(=O)NCC(=O)N(C)[C@@H]1C(=O)N[C@@H](C)C(=O)N[C@H](C(=O)O)Cc2ccc(O)c(c2)-c2cc1ccc2O,16 µg/mL,> 64 µg/mL,> 64 µg/mL,8 µg/mL,4 µg/mL,,16 µg/mL,,
CCCCCCCCCCCCCCC(C)C(=O)N[C@@H](C)C(=O)NCC(=O)N(C)[C@@H]1C(=O)N[C@@H](C)C(=O)N[C@H](C(=O)O)Cc2ccc(O)c(c2)-c2cc1ccc2O (mixture of isomers),> 64 µg/mL,> 64 µg/mL,> 64 µg/mL,8 µg/mL,,,> 64 µg/mL,,
CCCCCCCCCCCCCCCC(=O)N(C)[C@@H](CO)C(=O)NCC(C)C(=O)NCC(=O)N(C)[C@@H]1C(=O)N[C@@H](C)C(=O)N[C@H](C(=O)O)Cc2ccc(O)c(c2)-c2cc1ccc2O (mixture of isomers),> 64 µg/mL,> 64 µg/mL,> 64 µg/mL,8 µg/mL,,8 µg/mL,16 µg/mL,16 µg/mL,
CCCCCCCCCCCCCCCC(=O)N(C)[C@@H](CO)C(=O)NCCC(C)C(=O)NCC(=O)N(C)[C@@H]1C(=O)N[C@@H](C)C(=O)N[C@H](C(=O)O)Cc2ccc(O)c(c2)-c2cc1ccc2O (mixture of isomers),> 64 µg/mL,> 64 µg/mL,> 64 µg/mL,8 µg/mL,8 µg/mL,,8 µg/mL,,
CC(C)CCCCCCCCC(=O)N(C)[C@H](CO)C(=O)N[C@H](C)C(=O)NCC(=O)N(C)[C@@H]1C(=O)N[C@@H](C)C(=O)N[C@H](C(=O)O)Cc2ccc(O)c(c2)-c2cc1ccc2O [ARYLOMYCIN A2],,,,,,,,,16 µg/mL
CCCCCCCCCCCCCCCC(=O)N(C)[C@H](CO)C(=O)N[C@H](C)C(=O)NCC(=O)N(C)[C@@H]1C(=O)N[C@@H](C)C(=O)N[C@H](C(=O)O)Cc2ccc(O)c(c2)-c2cc1ccc2O [ARYLOMYCIN C16],> 64 µg/mL,> 64 µg/mL,> 64 µg/mL,0.5 µg/mL,,,,8 µg/mL,16 µg/mL
